The text below walks through data of ChEMBL document CHEMBL4627398 (J Med Chem, 2020).

Data set [1] is described as follows: Metabolic stability in human liver microsomes incubated for 60 mins. Conditions: read-out: Stability. In kind it is ADME, Microsome.
Data set [2] in a line: Metabolic stability in monkey liver microsomes incubated for 60 mins. Format: ADME, Macaca mulatta, Microsome. Conditions: rhesus monkey, read-out: Stability. (In general: Liver microsomes are vesicles of endoplasmic reticulum, rich in cytochrome P450 enzymes.)
Data set [3] can be described thus: Clearance in monkey at 0.1 mg/kg, iv. Format: ADME, organism-based, Macaca mulatta. As to conditions: rhesus monkey, in vivo.
Data set [4] can be described thus: Lipophilicity, logD of the compound at pH 7. As to conditions: buffer. In kind it is physicochemical.
A short description of data set [5]: Apparent permeability in human Caco2 cells. Format: ADME, cell-based. As to conditions: Caco-2.
The nature of data set [6]: Solubility of the compound in human Caco2 cells. Format: ADME, cell-based. Conditions: Caco-2 cells.
Data set [7] can be described thus: Solubility of the compound in PBS buffer. In kind it is physicochemical.
Data set [8] is described as follows: Solubility of the compound in FaSSIF. In kind it is physicochemical.
Data set [9] is described as follows: Solubility of the compound in FeSSIF. In kind it is physicochemical.
Data set [10] in a line: Metabolic stability in rat liver microsomes incubated for 60 mins. In kind it is ADME, Microsome. Conditions: read-out: Stability.
Data set [11] is described as follows: Metabolic stability in dog liver microsomes incubated for 60 mins. In kind it is ADME, Canis lupus familiaris, Microsome. As to conditions: read-out: Stability.
The nature of data set [12]: Metabolic stability in human hepatocytes incubated for 60 mins. Format: ADME, cell-based, Hepatocyte. Conditions: read-out: Stability.
Data set [13] can be described thus: Metabolic stability in rat hepatocytes incubated for 60 mins. In kind it is ADME, cell-based, Hepatocyte. Conditions: read-out: Stability.
A short description of data set [14]: Metabolic stability in monkey hepatocytes incubated for 60 mins. Format: ADME, cell-based, Macaca mulatta, Hepatocyte. Conditions: rhesus monkey, read-out: Stability.
The nature of data set [15]: Terminal half life in rat at 1 mg/kg, iv. Format: ADME, organism-based. As to conditions: in vivo, read-out: beta t1/2 (converted).
Data set [16] is described as follows: Terminal half life in dog at 0.3 mg/kg, iv. In kind it is ADME, organism-based, Canis lupus familiaris. As to conditions: in vivo, read-out: beta t1/2 (converted).
Data set [17] can be described thus: Total clearance in rat at 1 mg/kg, iv. Format: ADME, organism-based. Conditions: in vivo.
Data set [18] is described as follows: Total clearance in dog at 0.3 mg/kg, iv. Format: ADME, organism-based, Canis lupus familiaris. Conditions: in vivo.
Data set [19] in a line: Volume of distribution at steady state in rat at 1 mg/kg, iv. Conditions: in vivo, read-out: Vdss. In kind it is ADME, organism-based.
The nature of data set [20]: Volume of distribution at steady state in dog at 0.3 mg/kg, iv. Conditions: in vivo, read-out: Vdss. Format: ADME, organism-based, Canis lupus familiaris.
The nature of data set [21]: MRT in rat at 1 mg/kg, iv. As to conditions: in vivo. Format: ADME, organism-based.
Data set [22] is described as follows: MRT in dog at 0.3 mg/kg, iv. In kind it is ADME, organism-based, Canis lupus familiaris. Conditions: in vivo.
Data set [23] is described as follows: Tmax in rat at 10 mg/kg, po. Conditions: in vivo. Format: ADME, organism-based.
Data set [24] is described as follows: Tmax in dog at 1 mg/kg, po. Format: ADME, organism-based, Canis lupus familiaris. As to conditions: in vivo.
A short description of data set [25]: Cmax in rat at 10 mg/kg, po. Conditions: in vivo. Format: ADME, organism-based. On the set-up: dose 10 mg/kg, route oral.
Data set [26] in a line: Cmax in dog at 1 mg/kg, po. In kind it is ADME, organism-based, Canis lupus familiaris. Set-up: dose 1 mg/kg, route oral. Conditions: in vivo.
The nature of data set [27]: Oral bioavailability in rat at 10 mg/kg. Format: ADME, organism-based. Conditions: in vivo.
Data set [28] can be described thus: Oral bioavailability in dog at 1 mg/kg. In kind it is ADME, organism-based, Canis lupus familiaris. Conditions: in vivo.

In brackets after ≈: the same amount, converted by molar mass.

Consider `CC1CN(C(=O)CC#N)C12CCCN(c1ncnc3[nH]ccc13)C2` (stereo not given), for which the remaining at 1 h stood at 73.4% in data set [1] and 25.1% in data set [2].
For orientation: clearance means a measure of how efficiently the substance is removed, as volume per time. For `N#CCC(=O)N1CCC12CCCN(c1ncnc3[nH]ccc13)C2` (single isomer, unassigned), the figures for the remaining at 1 h in [1] and in [2] were 93.4% and 85.2%, respectively. In addition, in data set [3], the clearance is 12.7 mL/min/kg.
Consider `N#CCC(=O)N1CC(F)(F)C12CCN(c1ncnc3[nH]ccc13)C2` (single isomer, unassigned), for which the remaining at 1 h in data set [1] was found to be 99.4%; in data set [2] it was 95.4%. The clearance in [3] is 5.83 mL/min/kg.
`N#CCC(=O)N1CC(F)(F)C12CCCN(c1ncnc3[nH]ccc13)C2` (single isomer, unassigned): the remaining at 1 h in data set [1] worked out at 88.4%; in data set [2], 64.6%.
For `N#CCC(=O)N1CCCC12CCCN(c1ncnc3[nH]ccc13)C2` (single isomer, unassigned), the remaining at 1 h in data set [1] worked out at 75.7%; in data set [2] it was 29.4%.
The term logD denotes the decadic logarithm of the distribution of all forms, ionised or not, between an organic phase and buffer at a given pH. What is called Papp is the rate of passage across a membrane or cell layer, normalised by area and donor concentration. The solubility is the concentration that dissolves in the medium under given conditions. One may read the MRT as the average time that molecules of a dose stay in the body. One may read the Tmax as the time at which the peak concentration occurs. For orientation: Cmax means the maximum level reached in the sampled fluid or tissue. With `C[C@H]1CN(C(=O)CC#N)[C@]12CCN(c1ncnc3[nH]ccc13)C2` [DELGOCITINIB], the remaining at 1 h in data set [1] turned out to be 97.4%; in [2] it was 99.6%; in [10], 90.2%; in data set [11], 97.2%; in [12], 99.3%; in data set [13], 94.7%. Also, the remaining at 1 h in data set [14] is 84.8%. In addition, the results for the clearance in data set [3], in data set [17] and in [18] were 4.83 mL/min/kg, 35 mL/min/kg and 6.17 mL/min/kg, respectively. The logD in data set [4] came out at 0.6. For the same compound, the Papp in [5] worked out at 0.033 ×10⁻⁶ cm/s. For the same compound, the solubility was 1 µM (≈ 0.31 µg/mL) in data set [6], above 95 µM in data set [7], above 475 µM in [8] and above 475 µM in data set [9]. Besides, the half-life in data set [15] is 1.7 h; in data set [16], 2.3 h. For the same compound, the Vd in data set [19] was determined as 2.1 L/kg; in data set [20], 1.2 L/kg. For the same compound, the figures for the MRT in data set [21] and in data set [22] were 1 h and 3.2 h, respectively. The figures for the Tmax in data set [23] and in [24] were 1.5 h and 0.9 h, respectively. Also, the Cmax is 2.5 ng/mL in data set [25] and 1.9 ng/mL in data set [26]. Further, the bioavailability was determined as 78% in data set [27] and 124% in data set [28].
